Consider 5 molecules from patent US8268531B2, “Photoacid generator compounds and compositions” (Cornell Research Foundation, Inc., priority 2008, dated 2012).

One series can be described thus: Thermal properties (Td). Particulars: thermal property of the PAG. The class given is physicochemical.
Series [1] can be described thus: Optical properties: absorptivity at 248 nm in acetonitrile. The class given is physicochemical. The conditions noted are these: Measured in acetonitrile.

Consider `O=S(=O)(O)C(F)(F)C(F)(F)CCCl`, for which the Td in the series “Thermal properties (Td)” came to 205 °C.
With `O=S(=O)(O)C(F)(F)C(F)(F)Oc1ccccc1`, in series [1], the ε248 was found to be 6015 cm^2 · mol^-1. This molecule also yielded a Td in the series “Thermal properties (Td)” of 190 °C.
Taken in the same sequence, the figures for `O=S(=O)(O)C(F)(F)C(F)(F)OC(F)(F)C(F)(F)C1CC2CCC1C2` (centres unmarked) were 5220 cm^2 · mol^-1 and 164 °C.
Consider `O=C1CCC(CC(F)(F)C(F)(F)OC(F)(F)C(F)(F)S(=O)(=O)O)O1` (centres unmarked), for which the ε248 in series [1] worked out at 5400 cm^2 · mol^-1. Besides, the Td in “Thermal properties (Td)” turned out to be 165 °C.
Consider `O=S(=O)(O)C(F)(F)C(F)(F)C(F)(F)C(F)(F)F`, for which the ε248 in series [1] was 4200 cm^2 · mol^-1.
